In patent US8399465B2, “Compounds with two fused bicyclic heteroaryl moieties as modulators of leukotriene A4 hydrolase” (Janssen Pharmaceutica NV, priority 2009, dated 2013):
Where a name gives a salt, the structure may show the parent alone.

Columns and labels:
[1] = test system: LTB4 production in murine blood (LTA4H); experiment: LTB4 production by calcium ionophore-stimulated murine blood for LTA4H inhibitor activity; assay type: cell-based, CD-1 mice; settings: Mus musculus; murine blood diluted 1 in 15, A23187 stimulated; single determination or average; mark after value = form tested: ′ free base, ″ hydrochloride, ^ formate; read-out: IC50
Procedure: Assay 2: LTB4 Production by Calcium Ionophore-Stimulated Murine Blood for LTA4H Inhibitor Activity
CD-1 mice were sacrificed, and blood was collected in heparin-containing syringes by cardiac puncture. […] After the microtiter plate contents were incubated for 15 min at 37° C. in a humidified incubator, calcium ionophore A23187 (Sigma Chemical Co., St. Louis, Mo.) was added to each sample well (final concentration=7 μg/mL). The incubation was continued under the same conditions for an additional 30 min to allow LTB4 formation. The reaction was terminated by centrifugation (833×g, 10 min at 4° C.), and supernatants were analyzed for LTB4 by a commercially available enzyme-linked immunoassay (Cayman Chemical Co.) according to the manufacturer's instructions. Positive controls, under essentially identical conditions but without addition of an inhibitor compound, and negative unstimulated controls, containing all assay components except calcium ionophore, were routinely run in each experiment. […] The values presented here are the result of a single determination or an average of two or more determinations.

[2] = target: T1, recombinant human LTA4 hydrolase (rhLTA4H) (Homo sapiens, UniProt P09960); experiment: Recombinant human LTA4 hydrolase assay for LTA4 hydrolase inhibitor activity; assay type: biochemical; settings: rhLTA4H, LTB4 by immunoassay; single determination or average of two or more; mark after value = form tested: ′ free base, ″ hydrochloride, ^ formate; read-out: IC50
T1 construct: made in house; host or cells: Spodoptera frugiperda (Sf-9) cells, baculovirus (pFastBac1)
T1 sequence (P09960 1-611): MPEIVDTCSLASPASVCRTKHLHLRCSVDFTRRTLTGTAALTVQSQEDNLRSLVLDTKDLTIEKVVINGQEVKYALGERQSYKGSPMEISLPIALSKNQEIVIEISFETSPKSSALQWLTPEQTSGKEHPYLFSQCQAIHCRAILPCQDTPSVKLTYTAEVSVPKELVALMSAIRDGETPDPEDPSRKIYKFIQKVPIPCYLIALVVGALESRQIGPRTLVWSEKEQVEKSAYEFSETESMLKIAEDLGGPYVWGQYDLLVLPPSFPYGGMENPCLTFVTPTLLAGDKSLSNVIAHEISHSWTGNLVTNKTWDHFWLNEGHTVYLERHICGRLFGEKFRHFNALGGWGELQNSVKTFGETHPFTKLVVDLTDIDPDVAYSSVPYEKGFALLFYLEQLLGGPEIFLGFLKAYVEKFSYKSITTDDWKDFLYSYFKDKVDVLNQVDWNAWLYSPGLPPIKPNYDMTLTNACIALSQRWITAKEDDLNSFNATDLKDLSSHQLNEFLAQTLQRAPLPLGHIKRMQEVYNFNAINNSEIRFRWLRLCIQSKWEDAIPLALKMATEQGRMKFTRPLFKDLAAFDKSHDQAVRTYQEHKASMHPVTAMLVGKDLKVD
Method in brief: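 LTB4 formation, measured by enzyme immunoassay, was the read-out. The enzyme, recombinant human LTA4H expressed in Sf-9 insect cells (10 ng per reaction), was exposed to compound for 10 min at room temperature before hydrolysed-ester LTA4 substrate was added for 30 min. Enzyme-free negatives were included.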

| SMILES | IC50 [1] [nM] | IC50 [2] [nM] |
| --- | --- | --- |
| O=C(C1CCN(Cc2c[nH]c3cc(Oc4nc5ccccc5s4)ccc23)CC1)N1CCCCC1 [Example 24, {1-[6-(Benzothiazol-2-yloxy)-1H-indol-3-ylmethyl]-piperidin-4-yl}-piperidin-1-yl-methanone] | 341 | 2 |
| O=C(C1CCN(Cc2c[nH]c3cc(Oc4nc5ccccc5s4)ccc23)CC1)N1CCOCC1 [Example 25, {1-[6-(Benzothiazol-2-yloxy)-1H-indol-3-ylmethyl]-piperidin-4-yl}-morpholin-4-yl-methanone] | 100 | 2 |
| CN1CCN(C(=O)C2CCN(Cc3c[nH]c4cc(Oc5nc6ccccc6s5)ccc34)CC2)CC1 [Example 26, {1-[6-(Benzothiazol-2-yloxy)-1H-indol-3-ylmethyl]-piperidin-4-yl}-(4-methyl-piperazin-1-yl)-methanone] | 188 | 7 |
| NC(=O)[C@H]1CCCN(Cc2c[nH]c3cc(Oc4nc5ccccc5s4)ccc23)C1 [Example 27, (3S)-1-[6-(Benzothiazol-2-yloxy)-1H-indol-3-ylmethyl]-piperidine-3-carboxylic acid amide] | 136 | 19 |
| OCC1CCN(Cc2c[nH]c3cc(Oc4nc5ccccc5s4)ccc23)CC1 [Example 28, {1-[6-(Benzothiazol-2-yloxy)-1H-indol-3-ylmethyl]-piperidin-4-yl}-methanol] | 79 | 15 |
| CCOC(=O)NC1CCN(Cc2c[nH]c3cc(Oc4nc5ccccc5s4)ccc23)CC1 [Example 29, {1-[6-(Benzothiazol-2-yloxy)-1H-indol-3-ylmethyl]-piperidin-4-yl}-carbamic acid ethyl ester] | 234 | 15 |
| O=C1CCCN1C1CCN(Cc2c[nH]c3cc(Oc4nc5ccccc5s4)ccc23)CC1 [Example 30, 1-{1-[6-(Benzothiazol-2-yloxy)-1H-indol-3-ylmethyl]-piperidin-4-yl}-pyrrolidin-2-one] | 143 | 11 |
| c1ccc2sc(Oc3cnc4c(CN5CCCCC5)c[nH]c4c3)nc2c1 [Example 31, 2-(3-Piperidin-1-ylmethyl-1H-pyrrolo[3,2-b]pyridin-6-yloxy)-benzothiazole] | 188 | 55 |
| c1ccc2sc(Oc3cnc4c(CN5CCOCC5)c[nH]c4c3)nc2c1 [Example 32, 2-(3-Morpholin-4-ylmethyl-1H-pyrrolo[3,2-b]pyridin-6-yloxy)-benzothiazole] | 258 | 96 |
| NC(=O)C1CCN(Cc2c[nH]c3cc(Oc4nc5ccccc5s4)cnc23)CC1 [Example 33, 1-[6-(Benzothiazol-2-yloxy)-1H-pyrrolo[3,2-b]pyridin-3-ylmethyl]-piperidine-4-carboxylic acid amide] | 1520 | 42 |
| c1cnc2nc(Oc3ccc4c(CN5CCc6sc7ccccc7c6C5)c[nH]c4c3)sc2c1 [Example 34, 2-[6-(Thiazolo[4,5-b]pyridin-2-yloxy)-1H-indol-3-ylmethyl]-1,2,3,4-tetrahydro-benzo[4,5]thieno[3,2-c]pyridine formate] | 401 | 20 |
| c1cnc2nc(Oc3ccc4c(CN5CCc6c(sc7ccccc67)C5)c[nH]c4c3)sc2c1 [Example 35, 2-[6-(Thiazolo[4,5-b]pyridin-2-yloxy)-1H-indol-3-ylmethyl]-1,2,3,4-tetrahydro-benzo[4,5]thieno[2,3-c]pyridine] | 234 | 34 |
| Clc1ccc2sc3c(c2c1)CN(Cc1c[nH]c2cc(Oc4nc5ncccc5s4)ccc12)CC3 [Example 36, 8-Chloro-2-[6-(thiazolo[4,5-b]pyridin-2-yloxy)-1H-indol-3-ylmethyl]-1,2,3,4-tetrahydro-benzo[4,5]thieno[3,2-c]pyridine formate] | 423 | 77 |
| Clc1ccc2sc3c(c2c1)CCN(Cc1c[nH]c2cc(Oc4nc5ncccc5s4)ccc12)C3 [Example 37, 6-Chloro-2-[6-(thiazolo[4,5-b]pyridin-2-yloxy)-1H-indol-3-ylmethyl]-1,2,3,4-tetrahydro-benzo[4,5]thieno[2,3-c]pyridine formate] | 310 | 8 |
| Fc1ccc2sc3c(c2c1)CN(Cc1c[nH]c2cc(Oc4nc5ncccc5s4)ccc12)CC3 [Example 38, 8-Fluoro-2-[6-(thiazolo[4,5-b]pyridin-2-yloxy)-1H-indol-3-ylmethyl]-1,2,3,4-tetrahydro-benzo[4,5]thieno[3,2-c]pyridine] | 350 | 29 |
| c1cnc2nc(Oc3ccc4c(CN5CCOCC5)c[nH]c4c3)sc2c1 [Example 40, 2-(3-Morpholin-4-ylmethyl-1H-indol-6-yloxy)-thiazolo[4,5-b]pyridine] | 23 | 2 |
| c1cnc2nc(Oc3ccc4c(CN5CCSCC5)c[nH]c4c3)sc2c1 [Example 42, 2-(3-Thiomorpholin-4-ylmethyl-1H-indol-6-yloxy)-thiazolo[4,5-b]pyridine] | 27 | < 1 |
| CC(=O)N[C@H]1C[C@H]2CC[C@@H](C1)N2Cc1c[nH]c2cc(Oc3nc4cccnc4s3)ccc12 [Example 43, meso-endo-N-{8-[6-(Thiazolo[5,4-b]pyridin-2-yloxy)-1H-indol-3-ylmethyl]-8-aza-bicyclo[3.2.1]oct-3-yl}-acetamide] | 409 | 6 |
| O=C1C[C@@H](O)CN1C1CCN(Cc2c[nH]c3cc(Oc4nc5ccccc5s4)ccc23)CC1 [Example 44, (4R)-1-{1-[6-(Benzothiazol-2-yloxy)-1H-indol-3-ylmethyl]-piperidin-4-yl}-4-hydroxy-pyrrolidin-2-one] | 222 | 6 |
| O=C(O)C1CCN(Cc2c[nH]c3cc(Oc4nc5ccccc5s4)ccc23)CC1 [Example 45, 1-[6-(Benzothiazol-2-yloxy)-1H-indol-3-ylmethyl]-piperidine-4-carboxylic acid] | 1340 | 6 |
| O=C(O)CC1CCN(Cc2c[nH]c3cc(Oc4nc5ccccc5s4)ccc23)CC1 [Example 46, {1-[6-(Benzothiazol-2-yloxy)-1H-indol-3-ylmethyl]-piperidin-4-yl}-acetic acid] | 667 | 15 |
| O=C(O)C1CCCN(Cc2c[nH]c3cc(Oc4nc5ccccc5s4)ccc23)C1 (centres unmarked) [Example 47, 1-[6-(Benzothiazol-2-yloxy)-1H-indol-3-ylmethyl]-piperidine-3-carboxylic acid] | 870 | 21 |
| CC(=O)N(CC(=O)O)[C@H]1C[C@H]2CC[C@@H](C1)N2Cc1c[nH]c2ccc(Oc3nc4ccccc4s3)cc12 [Example 49, meso-endo-(Acetyl-{8-[5-(benzothiazol-2-yloxy)-1H-indol-3-ylmethyl]-8-aza-bicyclo[3.2.1]oct-3-yl}-amino)-acetic acid] | 10000 | 13 |
| NC1CCN(Cc2c[nH]c3cc(Oc4nc5ccccc5s4)ccc23)CC1 [Example 50, 1-[6-(Benzothiazol-2-yloxy)-1H-indol-3-ylmethyl]-piperidin-4-ylamine 2HCl] | 739 | 28 |
| c1ccc2sc(Oc3ccc4c(CN5CC6CNCC6C5)c[nH]c4c3)nc2c1 (centres unmarked) [Example 51, 2-[3-(Hexahydro-pyrrolo[3,4-c]pyrrol-2-ylmethyl)-1H-indol-6-yloxy]-benzothiazole 2HCl] | 180 | 45 |
